Measurements taken from article PMC4426677, “Tubulin structure-based drug design for the development of novel 4β-sulfur-substituted podophyllum tubulin inhibitors with anti-tumor activity” (Scientific Reports, 2015).
Entries after “also recorded” stand apart in the source; their conditions may differ. Read-outs that look alike come from different tables or passages of the source.

How the values were obtained:
[1] = tested on: human gastric carcinoma cell line BGC-823; assay: MTT cytotoxicity assay, BGC-823; type: cell-based; settings: read-out: Cytotoxic activity (IC50) BGC-823
Experimental: (§1) Cytotoxicity assays were performed on the human gastric carcinoma cell line BGC-823, the human lung adenocarcinoma cell line A549, the human hepatocellular liver carcinoma HepG2, and the normal human hepatic immortal cell line HL-7702. Cells (3500–13,000) were seeded into 96-well microtest plates in 100 μL of culture medium per well (Falcon, CA). The cells were treated in triplicate with a gradient concentration of test compounds and incubated at 37 °C in RPMI-1640 with 100 mg L^−1 kanamycin and 10% (v/v) fetal bovine serum in a humidified atmosphere containing 5% CO2 for 48 h. The plating efficiencies of the untreated cells varied between experiments with values ranging from 14 to 31% for the HL-7702 cells. For all cell lines, microculture tetrazolium [3-(4, 5-dimethylthiazol-2-yl)−2, 5-diphenyltetrazolium bromide, MTT; Sigma, St. Louis, MO] assay was performed to measure cytotoxic effects. […] The initial seeding densities varied among the cell lines to ensure a final absorbance reading in control (untreated) cultures within the range of 0.6–0.8 A492 units. […] Each test was performed in triplicate, and the absorbance readings between the triplicates varied by no more than 5%.
(§2) Data presented as means ± SD. Statistical analyses were performed by the analysis of variance (ANOVA). All statistical analyses were performed using Origin version 8.0 ([…], OriginLab Corp., Northampton, MA, USA). Sigmoidal dose responses and non-linear regression analyses were undertaken to identify half-maximal concentrations for each of the drugs. To evaluate differences in IC50 concentrations, analysis of variance combined with Tukey’s multiple range test was used.

[2] = MTT cytotoxicity assay, normal human cells HL-7720; type: cell-based; settings: drug exposure 48 h, mean ± SD (n = 3), read-out: Cytotoxic activity (IC50) HL-7720
Experimental: as §1, §2

[3] = tested on: human hepatocellular liver carcinoma HepG2; assay: MTT cytotoxicity assay, HepG2; type: cell-based; settings: read-out: Cytotoxic activity (IC50) HepG2
Experimental: as §1, §2

[4] = tested on: human lung adenocarcinoma cell line A549; assay: MTT cytotoxicity assay, A549; type: cell-based; settings: read-out: Cytotoxic activity (IC50) A549
Experimental: as §1, §2

calf brain tubulin = assay: Tubulin assembly inhibition, centrifugation assay; type: biochemical; settings: 30 min at 37 °C, read-out: GI50, inhibition of tubulin polymerization
Experimental: (§3) The degree of tubulin polymerization was evaluated through pellet mass formation in centrifugation assays in the presence of stoichiometric and semi-stoichiometric concentrations of each lignan.
Purification of calf brain tubulin and chemicals were followed as previously described by Andreu[20]. Ligands were dissolved in DMSO at 20 mM and kept at −80 °C. Work solutions were done in DMSO and kept at −20 °C. The 50% inhibitory ligand concentration of tubulin assembly was determined with a centrifugation assay. Tubulin was equilibrated prior to use in 3.4 M glycerol, 1 mM EGTA, 0.1 mM GTP, pH 7.0, buffer through a 25 cm × 0.9 cm Sephadex G-25 column. Aggregates were removed by a centrifugation at 90000 g × 10 min in a TLA 120 rotor at 4 °C in an Optima TLX centrifuge. Tubulin concentration was determined as described by Andreu[21]. Tubulin was kept at 4 °C, and 0.9 mM GTP and 6 mM MgCl2 were added to the sample. The solution was distributed in 200 μL polycarbonate tubes for the TL100 rotor. […] Microtubules were separated from unassembled tubulin by a centrifugation at 90000 g × 10 min in a TLA100 rotor at 37 °C in an Optima TLX centrifuge. […] The 50% inhibitory ligand concentration of tubulin assembly was determined with a centrifugation assay that measured the decrease in the concentrations of microtubules assembled in the presence of different concentrations of the compound.

A549 cells [5] = assay: Immunofluorescence staining of tubulin and nuclei; type: cell-based, human; settings: 1 μM, 12 hours
Experimental: as §3
Cells were fixed with 4% paraformaldehyde in phospate buffered saline (PBS), permeabilized with 0.5% Triton X-100 in PBS, and then tubulin was immunostained with monoclonal antibody to tubulin (B5-1-2, Sigma) followed by fluorescein 5-isothiocyanate (FITC) conjugated secondary antibody. Nuclei were labeled with 4′, 6-diamidino-2-phenylindole (DAPI). Fluorescence labeled tubulin and nuclei were observed using a Zeiss Axioplan fluorescence microscope, and images were captured by a XL16 Excel cooled digital camera controlled by the Dage Exponent software (Dage-MTI). Final images were prepared using Adobe Photoshop. The cells were then processed for immunofluoscence staining and confocal microscopy (× 600).

A549 cells [6] = assay: Cell apoptosis analysis (annexin V/PI flow cytometry); type: cell-based, human; settings: for maximum level of apoptosis: 48 h
Experimental: After 48 h of treatment with 4-TG-PTOX, the maximum levels of apoptosis reached were 63% and 67% at 4-TG-PTOX concentrations of 1 and 5 µM, respectively.
Cell apoptosis-inducing detection in A549 cells treatment with different concentrations of 4-TG-PTOX (i.e., 0.1, 1, and 5 μM) for 6, 12, 24, 48 h, respectively. In the early stages of apoptosis, phosphatidylserine (PS) was translocated from the inside of the cell membrane to the outside. Annexin V, a calcium dependent phospholipid-binding protein associated with a high affinity for phosphatidylserine, was used to detect early apoptotic cells. Propidine Iodide (PI) was a red fluorescent dye and stained cells that had lost membrane integrity. So, cells stained with FITC-annexin V and PI were discriminated necrotic cells (Q1, Annexin-/PI +), late apoptotic cells (Q2, Annexin +/PI+), intact cells (Q3, Annexin -/PI -) and early apoptotic cells (Q4, Annexin+/PI -).

tubulin = assay: Surface plasmon resonance binding to immobilized tubulin; settings: 1:1 Langmuir model, HBS-T buffer pH 7.4; read-out: equilibrium dissociation constant (KD value), SPR
Experimental: as §3
Based on the surface plasmon resonance (SPR) technology, the binding affinity of compounds to tubulin was determined with the ProteOn^TM XPR36 Protein Interaction Array System (Bio-Rad, Hercules, CA). For this purpose, tubulin was dissolved in 10 mM sodium acetate buffer (pH 3.5) and immobilized to the ProteOn^TM GLH sensor chip with the ProteOn^TM amine coupling kit. The final immobilization level was 8000 RU (Response unit). […] Data were analyzed with the ProteOn^TM Manager software, fitted to the 1:1 Langmuir model.

A549 cells [7] = assay: Cell cycle analysis (PI staining, flow cytometry); type: cell-based, human; settings: for G2/M phase arrest ratio: after 24 h incubation until end of incubation
Experimental: Tubulin inhibitors block cell cycle progression in mitosis at the G2/M phase, and a prolonged mitotic arrest triggers various apoptotic pathways. […] After 24 h incubations, the G2/M phase arrest ratio remained at around 80% and 90% until the end of the incubation.
Cell cycle arrest detection in A549 cells using propidium iodide (PI) double staining treatment with different concentrations of 4-TG-PTOX (i.e., 0.1, 1, and 5 μM) for 6, 12, 24, 48 h, respectively. The A549 cell line was used for cell cycle analysis. Cells were treated in triplicate with a gradient concentration of test compounds and incubated at 37 °C in RPMI-1640 with 100 mg L^−1 kanamycin and 10% (v/v) fetal bovine serum in a humidified atmosphere containing 5% CO2 for 48 h. Untreated and drug-treated cells were centrifuged and fixed overnight in 70% ethanol at 4 °C. They were then washed three times with PBS, incubated for 1 h with 1 mg/ mL RNase A and […] propidium iodide at room temperature, and analyzed with a FACSCalibur flow cytometer (BD, USA).

[8] = BGC-823, MTT, drug exposure 48 h, mean ± SD (n = 3)
[9] = HepG2, MTT, drug exposure 48 h, mean ± SD (n = 3)
[10] = A549, MTT, drug exposure 48 h, mean ± SD (n = 3)

SMILES | IC50 [1, 8] [µM] | IC50 at 48 h [2] [µM] | IC50 [3, 9] [µM] | IC50 [4, 10] [µM] | GI50 (calf brain tubulin) [µM] | effect on cellular microtubules (immunofluorescence) (A549 cells [5]) | effect on nucleus (DAPI) (A549 cells [5]) | ratio of apoptotic cells (A549 cells [6]; A549, 0.1 μM) | maximum level of apoptosis (A549 cells [6]; A549, 1 µM) [%] | maximum level of apoptosis (A549 cells [6]; A549, 5 µM) [%] | Kd (tubulin) [µM] | G2/M phase arrest (A549 cells [7]; A549, 0.1 μM) | G2/M phase arrest ratio (A549 cells [7]; A549, 1 μM) | G2/M phase arrest ratio (A549 cells [7]; A549, 5 μM) [%] | IC50 ([1]; BGC-823, 48 h) [µM] | IC50 ([3]; HepG2, 48 h) [µM] | IC50 ([4]; A549, 48 h) [µM]
COc1cc([C@@H]2c3cc4c(cc3[C@H](O)[C@H]3COC(=O)[C@H]23)OCO4)cc(OC)c1OC [PTOX, podophyllotoxin] | 18.3 ± 2.22 | 4.31 ± 1.46 | 8.36 ± 1.42 | 20.2 ± 2.75 | – | – | – | – | – | – | – | – | – | – | – | – | –
COc1cc(C2c3cc4c(cc3C(Sc3nc(N)nc5nc[nH]c35)C3COC(=O)C23)OCO4)cc(OC)c1OC (centres unmarked) [Compound 4-TG-PTOX] | 4.4 ± 1.55 | 13.5 ± 2.41 | 0.3 ± 0.34 | 0.57 ± 0.92 | < 1 | anti-microtubule activity was observed; also recorded: inhibited tubulin polymerization | not damaged | unaffected | 63 | 67 | 6.2 | arrested after 12 h and strongly arrested after 24 and 48 h | around 80% | ~90 | – | – | –
COC(=O)Nc1nc2ccc(C(=O)c3cccs3)cc2[nH]1 [Nocodazole, nocodazole] | – | 8.51 ± 1.73 | – | – | – | – | – | – | – | – | – | – | – | – | 38.9 ± 3.12 | 18.4 ± 3.71 | 27.4 ± 2.92
COc1cc(C2c3cc4c(cc3C(Sc3ncnc5nc[nH]c35)C3COC(=O)C23)OCO4)cc(OC)c1OC (centres unmarked) [Compound 4-MP-PTOX] | 8.72 ± 3.15 | 11.3 ± 0.57 | 1.14 ± 1.07 | 1.12 ± 0.35 | < 2 | anti-microtubule activity was observed; also recorded: inhibited tubulin polymerization | not damaged | – | – | – | 8.7 | – | – | – | – | – | –
COc1cc2c(c(OC)c1OC)-c1ccc(OC)c(=O)cc1[C@@H](NC(C)=O)CC2 [Colchicines, colchicine] | 12.2 ± 1.26 | 6.42 ± 1.03 | 13.2 ± 0.88 | 12.2 ± 0.76 | – | inhibited tubulin polymerization | – | – | – | – | – | – | – | – | – | – | –
